In this assay the target is T1, β2-adrenoceptor (β2AR) (Rattus norvegicus, UniProt P10608).
T1 construct: gene Adrb2
T1 sequence (P10608 whole entry): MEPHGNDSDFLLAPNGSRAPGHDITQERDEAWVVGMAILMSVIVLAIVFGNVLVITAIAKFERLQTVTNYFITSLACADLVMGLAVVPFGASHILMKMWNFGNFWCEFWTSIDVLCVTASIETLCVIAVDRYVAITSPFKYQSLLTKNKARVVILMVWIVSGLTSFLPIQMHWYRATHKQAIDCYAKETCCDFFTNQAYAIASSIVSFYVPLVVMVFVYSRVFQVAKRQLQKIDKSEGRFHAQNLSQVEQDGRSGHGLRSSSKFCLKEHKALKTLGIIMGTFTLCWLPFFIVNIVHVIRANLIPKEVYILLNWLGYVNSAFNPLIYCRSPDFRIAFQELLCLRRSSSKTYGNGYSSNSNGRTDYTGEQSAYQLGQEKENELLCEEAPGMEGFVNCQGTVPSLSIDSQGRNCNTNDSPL

Consider `C[C@@H](Cc1ccc(O)cc1)NC[C@H](O)c1cc(O)cc(O)c1` (racemic) [RS, (R,S)-fenoterol], for which the EC50 is 3.5 ± 0.5 µM.
`C[C@H](Cc1ccc(O)cc1)NC[C@H](O)c1cc(O)cc(O)c1` [RR, (R,R)-fenoterol]: the midpoint of the response, the EC50, lay at 0.14 ± 0.048 µM.

For orientation: EC50 means the concentration needed to bring the measured effect to its halfway point. Low readings indicate a more potent agent, high ones a less potent agent.

For the origin of these results see PMC4159282, “Gi Proteins Regulate Adenylyl Cyclase Activity Independent of Receptor Activation” (PLoS ONE, 2014).
